Measured values as given in a compilation of properties of binary mixtures (doi:10.1021/acs.jced.9b00875).

Assay: xn = mol fraction of the nth substance listed
Conditions: 101 kPa

CNC(C)=O + CCCC[n+]1ccn(C)c1.F[B-](F)(F)F
Conditions | speed of sound [m/s] | viscosity [mPa·s]
293.15 K, x2 = 0 | 1406.2 | 5.56
293.15 K, x2 = 0.2042 | 1479.3 | 8.7
293.15 K, x2 = 0.27 | 1497.8 | 10.6
293.15 K, x2 = 0.3564 | 1517.3 | 14.28
293.15 K, x2 = 0.4992 | 1540.3 | 24.5
293.15 K, x2 = 0.5552 | 1546.9 | 30.2
293.15 K, x2 = 0.6389 | 1555.3 | 41
293.15 K, x2 = 0.714 | 1561.4 | 53.3
293.15 K, x2 = 0.8495 | 1569.8 | 82.6
293.15 K, x2 = 0.9302 | 1573.9 | 104.9
298.15 K, x2 = 0 | 1385.3 | 4.77
298.15 K, x2 = 0.1409 | 1440 | 6.18
298.15 K, x2 = 0.27 | 1480.6 | 8.7
298.15 K, x2 = 0.3564 | 1501.1 | 11.64
298.15 K, x2 = 0.4343 | 1516 | 15.46
298.15 K, x2 = 0.5552 | 1532.7 | 24.2
298.15 K, x2 = 0.6389 | 1542 | 32.6
298.15 K, x2 = 0.714 | 1548.6 | 42.1
298.15 K, x2 = 0.8495 | 1558 | 64.5
298.15 K, x2 = 0.9302 | 1562.5 | 81.6
303.15 K, x2 = 0 | 1366.3 | 4.09
303.15 K, x2 = 0.0711 | 1395.9 | 4.92
303.15 K, x2 = 0.2042 | 1444.8 | 6.38
303.15 K, x2 = 0.27 | 1464.5 | 7.32
303.15 K, x2 = 0.3564 | 1486 | 9.13
303.15 K, x2 = 0.4343 | 1501.4 | 11.57
303.15 K, x2 = 0.4992 | 1511.8 | 14.39
303.15 K, x2 = 0.5552 | 1519.2 | 17.5
303.15 K, x2 = 0.6389 | 1529.2 | 23.6
303.15 K, x2 = 0.714 | 1536.2 | 30.7
303.15 K, x2 = 0.7774 | 1541.2 | 38.1
303.15 K, x2 = 0.8495 | 1546.2 | 48.2
303.15 K, x2 = 0.9302 | 1551 | 62
308.15 K, x2 = 0.0711 | 1380.7 | 4.25
308.15 K, x2 = 0.1409 | 1408.3 | 4.86
308.15 K, x2 = 0.2042 | 1430.4 | 5.48
308.15 K, x2 = 0.27 | 1450.3 | 6.31
308.15 K, x2 = 0.3564 | 1472.3 | 7.85
308.15 K, x2 = 0.4343 | 1488.2 | 9.86
308.15 K, x2 = 0.4992 | 1498.9 | 12.11
308.15 K, x2 = 0.5552 | 1506.5 | 14.56
308.15 K, x2 = 0.6389 | 1516.8 | 19.2
308.15 K, x2 = 0.7774 | 1529.2 | 30.2
308.15 K, x2 = 0.8495 | 1534.1 | 37.8
308.15 K, x2 = 0.9302 | 1539.1 | 48
313.15 K, x2 = 0 | 1336.4 | 3.08
313.15 K, x2 = 0.0711 | 1367.7 | 3.76
313.15 K, x2 = 0.1409 | 1395.4 | 4.34
313.15 K, x2 = 0.2042 | 1417.6 | 4.86
313.15 K, x2 = 0.27 | 1437.6 | 5.5
313.15 K, x2 = 0.3564 | 1459.7 | 6.64
313.15 K, x2 = 0.4343 | 1475.8 | 8.12
313.15 K, x2 = 0.5552 | 1494.8 | 11.64
313.15 K, x2 = 0.6389 | 1505 | 15.21
313.15 K, x2 = 0.714 | 1512 | 19.4
313.15 K, x2 = 0.7774 | 1517.5 | 23.7
313.15 K, x2 = 0.8495 | 1522.3 | 29.7
313.15 K, x2 = 0.9302 | 1527 | 37.8
318.15 K, x2 = 0 | 1325.2 | 2.76
318.15 K, x2 = 0.2042 | 1406.7 | 4.13
318.15 K, x2 = 0.27 | 1426.7 | 4.62
318.15 K, x2 = 0.3564 | 1448.6 | 5.5
318.15 K, x2 = 0.4343 | 1464.7 | 6.68
318.15 K, x2 = 0.4992 | 1476 | 8.04
318.15 K, x2 = 0.5552 | 1484.1 | 9.55
318.15 K, x2 = 0.6389 | 1493.8 | 12.51
318.15 K, x2 = 0.714 | 1501 | 16
318.15 K, x2 = 0.7774 | 1506.1 | 19.7
318.15 K, x2 = 0.8495 | 1510.8 | 24.7
318.15 K, x2 = 0.9302 | 1514.9 | 31.6

CCCC[n+]1ccn(C)c1.F[B-](F)(F)F + CNC(C)=O
x1 = 1
Conditions | speed of sound [m/s] | viscosity [mPa·s]
298.15 K | 1565.8 | 98.9
303.15 K | 1554.5 | 76.3
308.15 K | 1542.7 | 58.4
313.15 K | 1530.5 | 46.2
318.15 K | 1518 | 38.7
